Reference: patent publication US9005905B2, “Method of identifying transmembrane protein-interacting compounds” (Omeros Corporation, priority 2002, dated 2015)
Where two headings read alike, the source gives them in different places.

Key:
[1] = target: mu and delta opioid receptors (Homo sapiens, UniProt P35372+P41143); conditions: cited from earlier work
D1-NLS-GFP [2] = target: T1, D1-NLS-GFP (Homo sapiens, UniProt P21728, A340R/D336K/F337K/R338F); assay: D1-NLS-GFP (with D1-WT) translocation, antagonist dose response, HEK cells, confocal microscopy; type: cell-based; conditions: 48 hours
T1 construct: expressed in transfected cells; host or cells: HEK cells (HEK293T)
T1 sequence (P21728 whole entry D336K/F337K/R338F/A340R): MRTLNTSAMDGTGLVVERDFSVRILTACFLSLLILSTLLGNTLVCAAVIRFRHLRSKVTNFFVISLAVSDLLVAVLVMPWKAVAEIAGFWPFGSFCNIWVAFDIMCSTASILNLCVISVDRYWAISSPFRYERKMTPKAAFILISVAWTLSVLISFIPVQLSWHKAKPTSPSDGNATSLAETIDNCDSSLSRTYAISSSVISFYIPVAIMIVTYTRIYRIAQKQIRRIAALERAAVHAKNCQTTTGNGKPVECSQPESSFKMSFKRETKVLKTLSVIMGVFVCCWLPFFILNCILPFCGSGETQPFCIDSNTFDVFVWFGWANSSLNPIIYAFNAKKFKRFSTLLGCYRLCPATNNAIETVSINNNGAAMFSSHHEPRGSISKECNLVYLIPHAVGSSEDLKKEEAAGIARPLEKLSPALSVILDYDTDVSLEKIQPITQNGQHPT
Method: Test compounds were prepared in a stock solution of 1 millimolar concentration and diluted in growth medium to achieve a final concentration ranging between 10 nanomolar and 10 micromolar when added to cell plates. Fresh compound-containing medium was added to cells at 6 hours, 22 hours, 30 hours and 42 hours after transfection.
Cells were visualised using the LSM510 Zeiss confocal laser microscope. GFP was visualised following excitation with the argon laser at 488 nm excitation wavelength and the DsRed was visualised following excitation with the helium neon laser at 543 nm wavelength for excitation. The confocal images were captured on disk and evaluated. In each experiment, multiple fields of cells (n=6-8 with 30-90 cells each) were counted and evaluated for localisation of the signal on the cell surface, in the cytoplasm and in the nucleus.
HEK cells were transfected with DNA encoding D1-NLS-GFP (2 micrograms), and D1-WT (6 micrograms) for 48 hours. […] The medium containing antagonist was changed at 6, 22, 30 and 42 hours after transfection. Control cells received no antagonist treatment.

D1-2NLS-RFP = target: T2, D1-2NLS-RFP (Homo sapiens, UniProt P21728, A340R/A406K/D336K/E404K/E405R/F337K/R338F); assay: D1-2NLS-RFP trafficking, HEK cells; type: cell-based; conditions: 10 μM, 48 hours
T2 construct: expressed in transfected cells; host or cells: HEK cells
T2 sequence (P21728 whole entry D336K/F337K/R338F/A340R/E404K/E405R/A406K): as the sequence (P21728 whole entry D336K/F337K/R338F/A340R) above, with E404K, E405R, A406K counted along it
Method: By modifying the construct encoding D1-NLS-RFP, a DNA construct (D1-2NLS-RFP) was created to introduce a second NLS into the carboxyl tail of the dopamine D1 receptor by replacing the KKEEA (SEQ ID NO:171) sequence of the wild type D1 dopamine receptor with the NLS, KKKRK (SEQ ID NO:177).
HEK cells were transfected with DNA encoding this construct (D1-2NLS-RFP), and treated at intervals with the antagonist SCH-23390 (10 μM) as previously described. […] Control cells received no antagonist.

D1-IC1-NLS-GFP = target: T3, D1-IC1-NLS-GFP (Homo sapiens, UniProt P21728, H53R/I49K/R50K/R52K); assay: D1-IC1-NLS-GFP trafficking, HEK cells; type: cell-based; conditions: 1 micromolar, 48 hours
T3 construct: expressed in transfected cells; host or cells: HEK cells
T3 sequence (P21728 9-446 I49K/R50K/R52K/H53R limits assumed): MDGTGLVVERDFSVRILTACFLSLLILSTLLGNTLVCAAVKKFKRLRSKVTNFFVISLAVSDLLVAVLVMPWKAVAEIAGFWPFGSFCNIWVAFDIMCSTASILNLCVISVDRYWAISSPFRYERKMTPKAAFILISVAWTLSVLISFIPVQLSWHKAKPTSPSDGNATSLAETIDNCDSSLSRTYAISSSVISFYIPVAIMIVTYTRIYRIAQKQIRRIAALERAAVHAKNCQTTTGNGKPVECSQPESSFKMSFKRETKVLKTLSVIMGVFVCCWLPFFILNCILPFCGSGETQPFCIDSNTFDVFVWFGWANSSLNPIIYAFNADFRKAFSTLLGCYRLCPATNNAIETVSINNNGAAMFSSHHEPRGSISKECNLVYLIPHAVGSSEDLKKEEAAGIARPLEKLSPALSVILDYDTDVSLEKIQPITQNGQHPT
From the text: (§1) Nuclei were visualised with DsRED-NUC (2 micrograms). The cells were examined by confocal microscopy.

D1-IC3-NLS-GFP = D1-IC3-NLS-GFP (Homo sapiens, UniProt P21728, M262K/S263K); assay: D1-IC3-NLS-GFP trafficking, HEK cells; type: cell-based; conditions: 10 micromolar to 100 nanomolar (four concentrations), 48 hours
Chain of D1-IC3-NLS-GFP (P21728 9-446 M262K/S263K limits assumed): as the sequence (P21728 9-446 I49K/R50K/R52K/H53R limits assumed) above, with K41I, K42R, K44R, R45H, M254K, S255K counted along it
From the text: as §1

HA-D1-NLS = target: T4, HA-D1-NLS (Homo sapiens, UniProt P21728, A340R/D336K/F337K/R338F); assay: HA-D1-NLS cell surface receptor detected by fluorometry; type: cell-based; conditions: removal of SCH 23390 (0.5 micromolar) for the last hour, no agonist
T4 construct: MGYPYDVPDYARTLNTSAMDGTGLVV; expressed in transfected cells; host or cells: HEK cells
T4 sequence (P21728 whole entry D336K/F337K/R338F/A340R): as the sequence (P21728 whole entry D336K/F337K/R338F/A340R) above
From the text: Wells in a multi-well plate were coated with poly-L-ornithine and then plated with 50,000 cells per well. […] Following this, the cells were fixed with paraformaldehyde, and cell surface receptors were detected with a rat anti-HA antibody and then a goat anti-rat antibody conjugated to FITC. The fluorescent signal was detected by fluorometry (Cytofluor).
Wells in a multi-well plate were coated with poly-L-ornithine and then plated with 50,000 cells per well. […] Following this, the cells were fixed with paraformaldehyde, and cell surface receptors were detected with a rat anti-HA antibody and then a goat anti-rat antibody conjugated to FITC. The fluorescent signal was detected by fluorometry (Cytofluor). The results are the average of five wells per experimental condition.
HEK cells were transfected with HA-D1-NLS in a multi-well plate were coated with poly-L-ornithine at a concentration of 50,000 cells per well. […] Following this, the cells were fixed with paraformaldehyde, and cell surface receptors were detected with a rat anti-HA antibody and then a goat anti-rat antibody conjugated to FITC. The fluorescent signal was detected by fluorometry (Cytofluor). The results are the average of five wells per experimental condition.

D1-NLS2-GFP = D1-NLS2-GFP (Homo sapiens, UniProt P21728, A335P/A340K/D336K/F337K/F341V/K339R/R338K); conditions: 1 micromolar, 48 hrs
Chain of D1-NLS2-GFP (P21728 9-446 A335P/D336K/F337K/R338K/K339R/A340K/F341V limits assumed): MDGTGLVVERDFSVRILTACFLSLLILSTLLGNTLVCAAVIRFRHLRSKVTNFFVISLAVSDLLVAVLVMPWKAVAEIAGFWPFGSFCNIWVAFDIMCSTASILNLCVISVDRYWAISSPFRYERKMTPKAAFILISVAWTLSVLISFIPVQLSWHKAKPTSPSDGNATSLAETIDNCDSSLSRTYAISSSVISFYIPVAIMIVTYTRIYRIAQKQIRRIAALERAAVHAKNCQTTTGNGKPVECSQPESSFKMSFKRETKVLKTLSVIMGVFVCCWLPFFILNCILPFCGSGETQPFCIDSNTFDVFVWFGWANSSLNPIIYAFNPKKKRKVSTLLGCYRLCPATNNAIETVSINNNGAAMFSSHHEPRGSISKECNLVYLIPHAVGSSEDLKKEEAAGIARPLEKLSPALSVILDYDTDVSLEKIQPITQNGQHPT
From the text: Nuclei were visualised with DsRed-nuc (2 micrograms). Cells were examined by confocal microscopy.

DAT-NLS-RFP = target: T5, DAT-NLS-RFP (Homo sapiens, UniProt Q01959, C581K/S582R/Y578K); assay: DAT-NLS-RFP trafficking to the nucleus, HEK cells; type: cell-based; conditions: 10 micromolar, 48 hours
T5 construct: The full length cDNA encoding the human dopamine transporter (hDAT) was amplified using DAT in pcDNA3 as template; expressed in transfected cells; host or cells: HEK cells
T5 sequence (Q01959 whole entry Y578K/C581K/S582R): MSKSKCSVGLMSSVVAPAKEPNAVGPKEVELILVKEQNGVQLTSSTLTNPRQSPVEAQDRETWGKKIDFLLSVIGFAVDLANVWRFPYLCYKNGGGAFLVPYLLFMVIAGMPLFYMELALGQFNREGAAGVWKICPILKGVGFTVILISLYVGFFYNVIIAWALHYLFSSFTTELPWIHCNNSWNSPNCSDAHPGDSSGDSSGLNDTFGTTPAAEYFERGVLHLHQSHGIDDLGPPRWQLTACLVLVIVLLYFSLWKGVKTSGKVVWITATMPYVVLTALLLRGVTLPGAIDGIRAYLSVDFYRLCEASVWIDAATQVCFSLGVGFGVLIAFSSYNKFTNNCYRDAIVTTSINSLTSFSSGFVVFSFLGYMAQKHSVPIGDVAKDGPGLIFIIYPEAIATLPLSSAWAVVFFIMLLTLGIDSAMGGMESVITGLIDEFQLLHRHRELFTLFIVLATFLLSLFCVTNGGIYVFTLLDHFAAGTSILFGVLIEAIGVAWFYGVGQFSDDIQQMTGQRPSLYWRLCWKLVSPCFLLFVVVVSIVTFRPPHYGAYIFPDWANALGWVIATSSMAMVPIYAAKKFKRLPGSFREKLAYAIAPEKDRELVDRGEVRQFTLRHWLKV
Method: HEK cells were transfected with a DNA construct encoding DAT-NLS-RFP (2 micrograms) and incubated for 48 hours. At 6, 22, 30 and 42 hours after transfection, the cells were treated with cocaine or amphetamine (final concentration 10 micromolar), or left untreated. The cells were examined by confocal microscopy.

DAT-NLS-GFP = DAT-NLS-GFP (Homo sapiens, UniProt Q01959, C581K/S582R/Y578K); assay: DAT-NLS-GFP translocation, HEK cells; type: cell-based; conditions: 1 micromolar, 48 hours
Chain of DAT-NLS-GFP (Q01959 whole entry Y578K/C581K/S582R): as above
Method: HEK cells were transfected with a DNA construct encoding DAT-NLS-GFP (2 micrograms) and incubated for 48 hours. […] The cells were examined by confocal microscopy.
HEK cells were transfected with a construct encoding DAT-NLS-GFP (2 micrograms) and incubated for 48 hours. […] The cells were examined by confocal microscopy.
Control HEK cells were transfected with DAT-NLS-GFP incubated for 48 hours and not treated with drug.

5HT1B-NLS-GFP = target: T6, 5HT1B-NLS-GFP (Homo sapiens, UniProt P28222, D375K/E374K/Q378R); assay: 5HT1B-NLS-GFP translocation, HEK cells; type: cell-based; conditions: 10 micromolar, 48 hours
T6 construct: expressed in transfected cells; host or cells: HEK cells
T6 sequence (P28222 whole entry E374K/D375K/Q378R): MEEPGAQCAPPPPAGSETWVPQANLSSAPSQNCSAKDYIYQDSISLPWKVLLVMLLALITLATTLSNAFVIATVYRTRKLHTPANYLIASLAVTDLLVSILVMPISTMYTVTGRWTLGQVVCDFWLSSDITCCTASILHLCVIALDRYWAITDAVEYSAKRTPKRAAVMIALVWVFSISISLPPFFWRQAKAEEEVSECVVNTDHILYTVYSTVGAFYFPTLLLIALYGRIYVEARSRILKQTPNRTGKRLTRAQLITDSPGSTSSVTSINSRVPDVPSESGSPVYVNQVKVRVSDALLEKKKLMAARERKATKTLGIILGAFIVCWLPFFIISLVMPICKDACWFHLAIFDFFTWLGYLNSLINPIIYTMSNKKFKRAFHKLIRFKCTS
Method: HEK cells were transfected with a DNA construct encoding the serotonin 5HT1B-NLS-GFP (2 micrograms). The cells were transfected with Ds-red-NUC to verify the localisation of the nucleus (1 microgram). Cells were treated with methysergide (10 micromolar), a serotonin receptor antagonist. […] Control cells received no antagonist. The cells were examined by confocal microscopy.

Cys-LT2-NLS-GFP = target: T7, Cys-LT2-NLS-GFP (Homo sapiens, UniProt Q9NS75, D314R/E310K/N311K); assay: Cys-LT2-NLS-GFP translocation, HEK cells; type: cell-based; conditions: 10 micromolar
T7 construct: expressed in transfected cells; host or cells: HEK cells
T7 sequence (Q9NS75 1-346 E310K/N311K/D314R): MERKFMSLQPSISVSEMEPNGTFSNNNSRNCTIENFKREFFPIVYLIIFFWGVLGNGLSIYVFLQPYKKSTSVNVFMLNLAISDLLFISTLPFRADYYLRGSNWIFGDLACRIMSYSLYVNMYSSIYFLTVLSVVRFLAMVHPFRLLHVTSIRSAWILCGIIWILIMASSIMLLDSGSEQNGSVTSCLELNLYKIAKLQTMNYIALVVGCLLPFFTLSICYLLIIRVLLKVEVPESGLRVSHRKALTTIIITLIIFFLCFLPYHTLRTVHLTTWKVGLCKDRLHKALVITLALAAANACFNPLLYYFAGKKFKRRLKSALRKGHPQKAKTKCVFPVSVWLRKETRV
Method: The DNA encoding Cys-LT2-NLS-GFP (3 micrograms) was used to transfect HEK cells. These cells were treated with the cysteinyl leukotriene receptor antagonist, montelukast (10 micromolar). […] Control cells received no antagonist. The cells were examined by confocal microscopy.

D1-NLS-GFP [3] = target: T1, D1-NLS-GFP; assay: D1-NLS-GFP translocation, long-term agonist treatment, HEK cells; type: cell-based; conditions: agonist 10 micromolar, 48 hours
Method: The cells were examined by confocal microscopy.
HEK cells were transfected with a DNA construct encoding D1-NLS-GFP (1.5 micrograms of DNA), and incubated with the agonist pergolide (10 micromolar) for 48 hours. […] The cells were examined by confocal microscopy.
Control HEK cells were transfected with a DNA construct encoding D1-NLS-GFP (1.5 micrograms of DNA) and left untreated.

D2-NLS-GFP = target: T8, D2-NLS-GFP (Homo sapiens, UniProt P14416, E432K/I431K/K435R/R434K); assay: D2-NLS-GFP translocation, HEK cells; type: cell-based
T8 construct: expressed in transfected cells; host or cells: HEK cells
T8 sequence (P14416 whole entry I431K/E432K/R434K/K435R): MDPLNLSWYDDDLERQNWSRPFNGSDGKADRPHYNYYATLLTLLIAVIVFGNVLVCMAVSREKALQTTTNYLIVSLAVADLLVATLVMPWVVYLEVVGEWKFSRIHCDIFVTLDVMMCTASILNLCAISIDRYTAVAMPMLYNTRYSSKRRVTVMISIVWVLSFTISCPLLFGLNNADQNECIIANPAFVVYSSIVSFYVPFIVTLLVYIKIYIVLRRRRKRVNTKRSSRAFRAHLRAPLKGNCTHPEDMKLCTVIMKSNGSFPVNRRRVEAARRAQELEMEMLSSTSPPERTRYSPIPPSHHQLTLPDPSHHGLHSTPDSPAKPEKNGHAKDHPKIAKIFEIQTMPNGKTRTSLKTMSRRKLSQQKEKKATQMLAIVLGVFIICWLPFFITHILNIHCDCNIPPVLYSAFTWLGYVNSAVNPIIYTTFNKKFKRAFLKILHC
Method: At 6, 22, 30 and 42 hours after transfection, the cells were treated with the antagonists. Cells were incubated 48 hrs after drug treatment and examined by confocal microscopy.

M1-NLS-GFP = M1-NLS-GFP (Homo sapiens, UniProt P11229, A424K/D427R/R426K); conditions: 10 micromolar, 48 hours
Chain of M1-NLS-GFP (P11229 whole entry A424K/R426K/D427R): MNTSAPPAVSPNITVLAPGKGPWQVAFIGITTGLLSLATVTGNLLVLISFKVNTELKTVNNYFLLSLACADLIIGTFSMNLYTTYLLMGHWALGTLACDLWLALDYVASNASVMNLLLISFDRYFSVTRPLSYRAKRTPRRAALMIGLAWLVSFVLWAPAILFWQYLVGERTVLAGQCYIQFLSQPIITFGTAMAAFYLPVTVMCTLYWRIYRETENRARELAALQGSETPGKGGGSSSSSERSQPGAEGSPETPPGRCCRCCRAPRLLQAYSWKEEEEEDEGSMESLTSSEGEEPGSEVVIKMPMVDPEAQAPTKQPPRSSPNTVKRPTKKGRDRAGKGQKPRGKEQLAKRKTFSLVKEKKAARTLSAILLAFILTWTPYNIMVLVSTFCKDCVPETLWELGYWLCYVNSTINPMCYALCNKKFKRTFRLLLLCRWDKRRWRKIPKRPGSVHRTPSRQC
Method: These cells were treated with iprotropium bromide (10 micromolar). The medium containing antagonist was replaced at 6, 22, 30 and 42 hours after transfection. Control cells received no antagonist treatment. The cells were examined by confocal microscopy.

Chain of mu and delta opioid receptors (P35372 whole entry): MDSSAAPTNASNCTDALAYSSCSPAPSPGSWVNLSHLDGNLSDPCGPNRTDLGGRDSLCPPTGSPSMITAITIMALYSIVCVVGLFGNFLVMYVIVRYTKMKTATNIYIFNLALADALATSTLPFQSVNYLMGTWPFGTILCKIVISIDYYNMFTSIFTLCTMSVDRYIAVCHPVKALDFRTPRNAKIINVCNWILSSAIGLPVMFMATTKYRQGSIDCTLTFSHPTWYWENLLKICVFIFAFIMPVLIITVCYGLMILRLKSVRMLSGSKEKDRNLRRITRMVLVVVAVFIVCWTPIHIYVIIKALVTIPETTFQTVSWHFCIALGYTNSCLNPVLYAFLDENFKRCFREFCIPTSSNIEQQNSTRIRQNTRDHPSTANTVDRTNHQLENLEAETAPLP
Chain of mu and delta opioid receptors (P41143 whole entry): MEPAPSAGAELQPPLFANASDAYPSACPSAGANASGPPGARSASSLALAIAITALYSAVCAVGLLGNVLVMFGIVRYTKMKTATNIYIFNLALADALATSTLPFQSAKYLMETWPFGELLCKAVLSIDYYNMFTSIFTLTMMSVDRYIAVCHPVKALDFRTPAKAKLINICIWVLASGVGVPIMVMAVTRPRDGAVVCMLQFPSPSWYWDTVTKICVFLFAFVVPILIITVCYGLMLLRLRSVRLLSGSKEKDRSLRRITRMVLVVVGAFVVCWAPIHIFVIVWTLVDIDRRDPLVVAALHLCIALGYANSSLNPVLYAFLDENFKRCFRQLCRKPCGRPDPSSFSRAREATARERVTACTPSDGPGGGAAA

## C[C@@H](NC(=O)[C@@H](N)Cc1ccc(O)cc1)C(=O)NCC(=O)N(C)[C@@H](Cc1ccccc1)C(=O)NCCO [DAMGO]
[1]
  potency at co-expressed versus individual receptors: reduced potency

## CN1CCc2cc(Cl)c(O)cc2[C@@H](c2ccccc2)C1 [SCH-23390]
D1-NLS-GFP [2]; 0.2 μM
  % cells receptor in nucleus: 19%
  % cells receptor on surface: 32%
  % cells receptor on surface and in nucleus: 49%
D1-NLS-GFP [2]; 0.5 μM
  % cells receptor in nucleus: 20%
  % cells receptor on surface: 36%
  % cells receptor on surface and in nucleus: 44%
D1-NLS-GFP [2]; 1 μM
  % cells receptor in nucleus: 15%
  % cells receptor on surface: 39%
  % cells receptor on surface and in nucleus: 46%
D1-NLS-GFP [2]; 5 μM
  % cells receptor in nucleus: 12%
  % cells receptor on surface: 46%
  % cells receptor on surface and in nucleus: 42%
D1-NLS-GFP [2]; 10 μM, HEK cells
  % cells receptor on surface: 58%
  % cells receptor on surface and in nucleus: 32%
D1-2NLS-RFP
  % cells with cell surface label: 51%
  % cells with nuclear label: 49%
D1-IC1-NLS-GFP
  % cells with receptor in the nucleus: 23%
  % cells with receptor on the cell surface or in the cytoplasm: 77%
D1-IC3-NLS-GFP
  % cells with receptor in the nucleus: 84%
  % cells with receptor on the surface: 15%
HA-D1-NLS
  loss of HA-D1-NLS receptors from the cell surface: 33%
D1-NLS2-GFP
  % cells with receptor expression in the nucleus: 22%
  % cells with receptor on the cell surface or in cytoplasm: 78%

## CC(N)Cc1ccccc1 (stereo not drawn) [amphetamine]
DAT-NLS-RFP
  % cells with cell surface or cytoplasmic expression of DAT-NLS-RFP: 34%
  % cells with transporter expression in the nucleus and cytoplasm: 66%
  effect on the trafficking of the DAT-NLS-RFP to the nucleus: no inhibitory effect

## COC(=O)[C@H]1[C@@H](OC(=O)c2ccccc2)C[C@@H]2CC[C@H]1N2C [cocaine]
DAT-NLS-RFP
  % cells with cell surface or cytoplasmic expression of DAT-NLS-RFP: 75%
  % cells with transporter expression in the nucleus and cytoplasm: 25%

## OC1(c2ccc(Cl)cc2)c2ccccc2C2=NCCN21 (stereo not drawn) [mazindol]
DAT-NLS-GFP
  % cells with transporter expression in the nucleus and cytoplasm: 39%
  % cells with transporter expression on the cell surface and in cytoplasm: 61%

## CC[C@@H](CO)NC(=O)[C@@H]1C=C2c3cccc4c3c(cn4C)C[C@H]2N(C)C1 [methysergide]
5HT1B-NLS-GFP
  % cells with cell surface localisation: 62%
  % cells with receptor in the nucleus: 25%

## CC(C)(O)c1ccccc1CC[C@@H](SCC1(CC(=O)O)CC1)c1cccc(/C=C/c2ccc3ccc(Cl)cc3n2)c1 [montelukast]
Cys-LT2-NLS-GFP
  % cells with cell surface expression of receptor: 90%
  % cells with nuclear localisation of the receptor: 10%

## CCCN1C[C@H](CSC)C[C@@H]2c3cccc4[nH]cc(c34)C[C@H]21 [perglolide, pergolide]
D1-NLS-GFP [3]
  % cells with receptor expression at the cell surface: 59%

## CCN1CCC[C@H]1CNC(=O)c1c(O)c(Cl)cc(Cl)c1OC [raclopride]
D2-NLS-GFP; 10 micromolar, 48 hrs
  % cells with cell surface labelling: 80%
  % cells with cytoplasmic label: 15%
  % cells with nuclear labelling: 5%

## (+)butaclamol
D2-NLS-GFP
  % cells with cell surface labelling: 90%
  % cells with cytoplasmic label: 5%
  % cells with nuclear labelling: 5%

## iprotropium bromide
M1-NLS-GFP
  % cells with receptor expression in the cytoplasm only: 17%
  % cells with receptor expression in the nucleus: 11%
  % cells with receptor expression on the cell surface: 72%
